Reference: patent US7488792B2, “Collagen-binding molecules that selectively home to tumor vasculature and methods of using same” (Burnham Institute for Medical Research, priority 2002, dated 2009)
Ends that are not written are not given here. * marks the point of attachment. FITC = O=C1OC2(c3ccc(O)cc3Oc3cc(O)ccc32)c2ccc(NC(=S)*)cc21

Legend:
[1] = system: vasculature of MDA-MB-435 human breast cancer cell xenografts; assay: In vivo homing of phage to MDA-MB-435 xenografts in nude mice (phage recovery, pfu); parameters: species or system mouse; conditions: co-injection
Procedure: Phage preparations (1×10^9 plaque forming units (pfu)) of CREKA (SEQ ID NO: 1)-displaying phage were injected into tumor-bearing mice and subsequently recovered from breast tumors and a variety of normal tissues. […] The CREKA (SEQ ID NO: 1) phage also homed to the vasculature of MDA-MB-435 human breast cancer cell xenografts grown in the mammary fat pad of nude mice with a 20-fold specificity over non-recombinant phage as shown in FIG. 1B.
In vivo phage display screens were performed with 65 to 75 day old transgenic MMTV PyMT mice obtained from Dr. William Muller. MDA-MB-435 tumors were generated as described in Laakkonen et al., Nat. Med. 7:751-755 (2002). Briefly, 10^6 MDA-MB-435 cells in 100 μl phosphate buffered saline (PBS) were injected into the mammary fat pad of nude mice. Tumors were grown for five weeks before the animals were used in vivo studies. In vivo phage screening was performed as described in Porkka et al., Proc. Natl. Acad. Sci., USA 99:7444-7449 (2002), with a few modifications. Briefly, mice were anesthetized with avertin and then injected intravenously with 10^9 pfu of the CX7C library. Mice were perfused through the heart with 10 ml of PBS seven minutes after the injection. […] Cell-adherent phage particles were recovered by infecting BL21 bacteria (Novagen), and the number of phage quantified by plaque assay.

[2] = molecular target: T1, collagen IV fragment of clone #3 (SEQ ID NO: 2) (Mus musculus, UniProt P08122); assay: Binding of phage displaying clone #3 collagen IV fragment to immobilized CREKA peptide and its competition; parameters: effect of fibronectin on phage binding (clone #3 fragment / immobilized CREKA): dose or concentration left out as unconfirmed
T1 construct: made in house; host or cells: T7 phage (modified T7Select1-2b) amplified in BLT 5615 bacteria; cDNA from mouse 4T1 cells
T1 sequence (P08122 with tags, fused parts or gaps): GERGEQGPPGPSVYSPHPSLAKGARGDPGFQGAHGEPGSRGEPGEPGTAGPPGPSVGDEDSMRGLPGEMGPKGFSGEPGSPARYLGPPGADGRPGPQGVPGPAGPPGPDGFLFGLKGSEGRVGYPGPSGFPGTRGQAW
Procedure: Expression cloning was performed essentially as described in Essler and Ruoslahti, Proc. Natl. Acad. Sci., USA 99:2252-2257 (2002). CREKA (SEQ ID NO: 1) peptide was synthesized on a Symphony synthesizer (Rainin Instruments; Emeryville, Calif.) at The Burnham Institute peptide facility, and purified by high performance liquid chromatography. […] Biotin-labeled peptide (2 mg/ml) was immobilized on a streptavidin-coated 96 well Reacti-Bind® polystyrene strip plate (Pierce; Rockford, Ill.) by coating overnight at room temperature with 100 μl of 2 mg/ml biotin-CREKA (SEQ ID NO: 1) in PBS. The wells were subsequently treated three times with 200 μl SuperBlock® blocking buffer (Pierce).
Binding assays were performed as follows. […]
For competitions with free CREKA (SEQ ID NO: 1) peptide, phage displaying the clone #3 collagen IV fragment (SEQ ID NO: 2; 1×10^7 pfu) were applied to CREKA (SEQ ID NO: 1)-coated surfaces in 96-well ELISA plates prepared as described above, and incubated for one […] in the presence of 0.01 mg, 0.05 mg, or 0.1 mg soluble CREKA (SEQ ID NO: 1) peptide in 100 μl PBS. […] After 20 washes with 100 μl PBS, phage particles were recovered by infecting BL21 bacteria, and the number of attached phage determined. Phage output was determined as a percentage of phage recovered from wells not treated with soluble peptide.

[3] = system: mitochondrial membranes; conditions: concentration of 10 μM; cited from earlier work
[4] = molecular target: T2, collagen IV in MMTV-PyMT tumors (Mus musculus, UniProt P02463+P08122); assay: Co-localization of injected FITC peptide with collagen IV immunostaining in tumors; assay type: in vivo; conditions: 100 μg injected into tail vein, 15 minutes; connective tissue surrounding tumor masses
T2 construct: from tissue; host or cells: breast tumors of MMTV PyMT mice
Procedure: Localization of collagen IV was compared to the localization of CREKA (SEQ ID NO: 1) peptide in breast tumors.
Immunostaining was performed after injection of 100 μg FITC-CREKA (SEQ ID NO: 1) into the tail vein of MMTV PyMT mice. After 15 minutes, tumors were dissected, fixed, stained for collagen IV and counter-stained with DAPI essentially as follows. Collagen IV was detected by immunofluorescence as described in Engvall et al., supra, 1982, with the following modifications. Briefly, mouse tissues were fixed with 3.7% paraformaldehyde for two hours, washed with PBS, and incubated in glycine (0.01%, pH 7.4) for 12 hours to quench autofluorescence of the samples. Specimens were then treated with increasing concentrations of sucrose (12%, 15%, 18%), embedded in Tissue-Tek© (Miles Inc.), frozen, and cut into 5 μm sections. After an overnight incubation with rabbit antiserum to collagen IV (diluted 1:40 in PBS) at 4° C. (Engvall et al., supra, 1982), the sections were washed with PBS and incubated with rhodamine-labeled goat anti-rabbit antibody (DAKO) at a dilution of 1:30 for 30 minutes. After washing, the sections were mounted in 90% glycerol.

[5] = system: MMTV PyMT tumors; assay: Tissue localization of fluorescein- and rhodamine-labeled peptide after intravenous injection; assay type: in vivo, mouse; conditions: for detection of labeled peptide in MMTV PyMT tumors / detection of labeled peptide in normal tissues: 15 minutes after intravenous injection; for detection of labeled peptide in normal tissues: brain or liver
Procedure: Similarly, fluorescein (FITC) and rhodamine labeled CREKA (SEQ ID NO: 1) peptides also were detected in MMTV PyMT tumors 15 minutes after intravenous injection but were not observed in normal tissues such as the brain or liver (compare FIG. 3A with FIGS. 3B and 3C). […] As expected, control organs such as the heart, injected with rhodamine-labeled CREKA (SEQ ID NO: 1) and FITC-tomato-lectin, which stains blood vessels, were negative for CREKA (SEQ ID NO: 1) peptide staining (see FIG. 3F).
Peptide synthesis and labeling of peptides with fluorescein and rhodamine was carried out as described in Wender et al., Proc. Natl. Acad. Sci., USA 97:13003-13008 (2000), and Oku et al., supra, 2002, and detected essentially as follows. A 1 mg/ml solution of fluorescein-labeled CREKA (SEQ ID NO: 1) peptide in PBS was injected into the tail vein of MMTV PyMT mice. After 15 minutes or two hours of circulation, mice were perfused through the heart with 10 ml PBS, and the indicated organs harvested. Tissues were dissected, fixed with 3.7% paraformaldehyde for two hours, washed with PBS, and soaked in glycine (0.01%, pH 7.4) for 12 hours. Specimens were then treated with a sucrose gradient (12%, 15%, 18%), embedded in Tissue-Tek© (Miles Inc.; Elkhardt, Ind.) and frozen. Subsequently, 5 μm sections were prepared for fluorescence microscopy, and 50 μm sections were prepared for confocal microscopy. To detect blood vessels, 100 μl of 1 mg/ml solution of fluorescein-labeled tomato lectin (Vector Labs; Burlingame, Calif.) was injected into mice in PBS.

[6] = system: tumor; assay: In vivo tumor homing of CREKA phage with co-injection of gelatin
[7] = after two hours, localizing outside the blood vessels

T2 sequence (P02463 173-1669): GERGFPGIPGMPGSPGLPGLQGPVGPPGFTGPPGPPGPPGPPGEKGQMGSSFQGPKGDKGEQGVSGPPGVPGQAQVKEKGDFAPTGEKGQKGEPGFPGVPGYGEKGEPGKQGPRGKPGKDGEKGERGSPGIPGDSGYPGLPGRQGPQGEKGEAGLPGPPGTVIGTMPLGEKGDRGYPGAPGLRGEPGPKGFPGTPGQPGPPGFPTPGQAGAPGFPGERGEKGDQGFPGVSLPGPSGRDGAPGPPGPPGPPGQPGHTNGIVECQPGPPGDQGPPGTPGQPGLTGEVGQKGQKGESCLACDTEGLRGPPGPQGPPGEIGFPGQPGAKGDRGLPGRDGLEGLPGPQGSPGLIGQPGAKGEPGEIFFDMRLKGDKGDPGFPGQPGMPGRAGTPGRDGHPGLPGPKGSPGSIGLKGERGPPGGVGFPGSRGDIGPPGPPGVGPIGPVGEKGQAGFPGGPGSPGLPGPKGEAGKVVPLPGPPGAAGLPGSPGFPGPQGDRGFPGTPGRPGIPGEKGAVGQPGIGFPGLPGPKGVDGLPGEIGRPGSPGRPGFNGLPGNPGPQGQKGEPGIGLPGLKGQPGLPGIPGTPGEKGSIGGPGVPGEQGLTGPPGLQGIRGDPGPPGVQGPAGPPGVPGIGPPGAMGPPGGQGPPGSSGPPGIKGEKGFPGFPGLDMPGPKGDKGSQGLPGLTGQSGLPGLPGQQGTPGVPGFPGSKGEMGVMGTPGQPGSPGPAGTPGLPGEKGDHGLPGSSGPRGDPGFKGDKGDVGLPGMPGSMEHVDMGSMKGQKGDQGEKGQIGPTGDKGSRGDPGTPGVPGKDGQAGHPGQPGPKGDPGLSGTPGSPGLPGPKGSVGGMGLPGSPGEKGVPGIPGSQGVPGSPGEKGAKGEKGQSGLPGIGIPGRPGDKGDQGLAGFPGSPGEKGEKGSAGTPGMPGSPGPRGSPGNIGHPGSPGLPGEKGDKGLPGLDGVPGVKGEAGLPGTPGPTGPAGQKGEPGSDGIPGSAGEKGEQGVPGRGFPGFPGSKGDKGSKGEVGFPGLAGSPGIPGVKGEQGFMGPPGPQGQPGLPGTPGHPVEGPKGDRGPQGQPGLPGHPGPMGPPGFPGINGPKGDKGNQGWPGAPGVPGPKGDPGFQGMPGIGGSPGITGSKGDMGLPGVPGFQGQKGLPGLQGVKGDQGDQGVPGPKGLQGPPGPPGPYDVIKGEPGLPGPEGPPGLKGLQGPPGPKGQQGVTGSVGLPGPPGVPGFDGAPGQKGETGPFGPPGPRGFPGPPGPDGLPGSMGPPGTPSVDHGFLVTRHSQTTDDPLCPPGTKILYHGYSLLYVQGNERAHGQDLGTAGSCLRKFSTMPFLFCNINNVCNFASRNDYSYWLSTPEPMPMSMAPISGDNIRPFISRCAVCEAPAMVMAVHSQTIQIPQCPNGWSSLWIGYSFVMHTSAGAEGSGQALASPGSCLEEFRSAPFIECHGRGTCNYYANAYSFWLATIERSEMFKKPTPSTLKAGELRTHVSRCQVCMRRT
T2 sequence (P08122 184-1707): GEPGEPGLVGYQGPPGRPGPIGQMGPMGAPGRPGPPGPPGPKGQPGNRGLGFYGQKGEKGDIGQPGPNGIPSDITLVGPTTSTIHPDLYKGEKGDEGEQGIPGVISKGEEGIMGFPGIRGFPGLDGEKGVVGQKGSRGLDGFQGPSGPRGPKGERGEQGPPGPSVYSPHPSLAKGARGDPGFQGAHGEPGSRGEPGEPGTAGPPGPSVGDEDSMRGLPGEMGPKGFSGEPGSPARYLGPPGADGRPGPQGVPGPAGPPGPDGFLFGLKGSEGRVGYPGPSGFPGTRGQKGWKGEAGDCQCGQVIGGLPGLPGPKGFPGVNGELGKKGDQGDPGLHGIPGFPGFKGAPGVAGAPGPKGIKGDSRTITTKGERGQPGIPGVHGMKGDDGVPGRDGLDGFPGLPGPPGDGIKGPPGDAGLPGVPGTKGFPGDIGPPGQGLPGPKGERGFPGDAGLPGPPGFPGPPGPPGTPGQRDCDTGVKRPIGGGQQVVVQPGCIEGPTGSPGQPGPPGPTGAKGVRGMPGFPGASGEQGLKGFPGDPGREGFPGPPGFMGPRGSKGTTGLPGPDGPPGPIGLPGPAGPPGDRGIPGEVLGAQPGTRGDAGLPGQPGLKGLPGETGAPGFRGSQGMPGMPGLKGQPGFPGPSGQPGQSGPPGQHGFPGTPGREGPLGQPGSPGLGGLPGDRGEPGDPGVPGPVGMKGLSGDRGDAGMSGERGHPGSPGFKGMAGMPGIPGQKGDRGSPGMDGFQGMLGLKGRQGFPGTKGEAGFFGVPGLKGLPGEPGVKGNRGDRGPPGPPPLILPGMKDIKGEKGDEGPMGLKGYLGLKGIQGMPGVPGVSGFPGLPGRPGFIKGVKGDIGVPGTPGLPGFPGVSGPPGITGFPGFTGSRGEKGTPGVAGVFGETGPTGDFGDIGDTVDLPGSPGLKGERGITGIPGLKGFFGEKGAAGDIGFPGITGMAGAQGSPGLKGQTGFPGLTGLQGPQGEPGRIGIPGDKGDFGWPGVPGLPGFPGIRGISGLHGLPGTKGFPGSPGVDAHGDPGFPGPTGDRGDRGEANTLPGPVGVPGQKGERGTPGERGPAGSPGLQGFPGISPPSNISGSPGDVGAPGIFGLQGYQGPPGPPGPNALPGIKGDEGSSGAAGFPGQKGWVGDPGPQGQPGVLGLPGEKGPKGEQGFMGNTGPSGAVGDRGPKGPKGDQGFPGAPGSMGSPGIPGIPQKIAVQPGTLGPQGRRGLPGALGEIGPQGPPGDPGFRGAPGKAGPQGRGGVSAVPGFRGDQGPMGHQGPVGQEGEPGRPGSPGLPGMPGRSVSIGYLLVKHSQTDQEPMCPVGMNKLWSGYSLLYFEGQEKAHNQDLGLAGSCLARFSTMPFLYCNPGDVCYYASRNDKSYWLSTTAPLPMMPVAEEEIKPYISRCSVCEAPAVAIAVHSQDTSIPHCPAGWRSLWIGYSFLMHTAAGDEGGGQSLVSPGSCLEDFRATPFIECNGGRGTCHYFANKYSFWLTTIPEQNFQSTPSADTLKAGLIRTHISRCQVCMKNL

Substance | detection of labeled peptide in MMTV PyMT tumors [5] | distribution of labeled peptide within tumor ([5]; 15 minutes after the injection) | distribution of labeled peptide within tumor [5, 7] | detection of labeled peptide in normal tissues [5] | also measured
CREKA [CREKA peptide] |  |  |  |  | effect of co-injected free peptide on homing of phage displaying the control peptide [1]: did not inhibit; effect of co-injected free peptide on CREKA-displaying phage recovery from breast cancer tissue ([1]; excess of free peptide, FIG. 1B): inhibited; inhibition of clone #3 collagen IV fragment phage binding to immobilized CREKA ([2]; 0.01 mg, 0.05 mg or 0.1 mg soluble peptide in 100 μl PBS, FIG. 5A): inhibited
D(KLAKLAK)2 |  |  |  |  | mitochondrial swelling [3]: marked mitochondrial swelling
FITC-CREKA: fluorescein (FITC) labeled CREKA (SEQ ID NO: 1) peptide ({FITC}-CREKA) | detected | primarily in the tumor periphery | detected in the entire tumor | not observed | co-localization with collagen IV in tumors [4]: partially co-localized
Fibronectin [reference compound] |  |  |  |  | effect of fibronectin on phage binding (clone #3 fragment / immobilized CREKA) ([2]; fibronectin, FIG. 5B): did not significantly reduce
gelatin |  |  |  |  | effect of co-injection on in vivo tumor homing of CREKA-expressing phage [6]: completely blocked
rhodamine-labeled CREKA: rhodamine labeled CREKA (SEQ ID NO: 1) peptide (also: rhodamine label, site not given here) | detected | primarily in the tumor periphery | detected in the entire tumor | not observed | CREKA peptide staining in heart ([5]; heart, co-injected with FITC-tomato-lectin, FIG. 3F): negative
